# Active and inactive are the calls of the source. How the calls were made is not given here.
# Test system: CCRIS mutagenicity, Ames/micronucleus/aberration tests
# Test: CCRIS mutagenicity studies
# [1] = Test System: AMES SALMONELLA TYPHIMURIUM, Strain/Indicator: TA98, Metabolic Activation: NONE, Method: STANDARD PLATE
# [2] = Test System: AMES SALMONELLA TYPHIMURIUM, Strain/Indicator: TA100, Metabolic Activation: NONE, Method: STANDARD PLATE
# [3] = Test System: AMES SALMONELLA TYPHIMURIUM, Strain/Indicator: TA97, Metabolic Activation: HAMSTER, LIVER, S-9, AROCLOR 1254 (10 OR 30%), Method: PREINCUBATION
# [4] = Test System: AMES SALMONELLA TYPHIMURIUM, Strain/Indicator: TA97, Metabolic Activation: NONE, Method: PREINCUBATION
# [5] = Test System: AMES SALMONELLA TYPHIMURIUM, Strain/Indicator: TA98, Metabolic Activation: HAMSTER, LIVER, S-9, AROCLOR 1254 (10 OR 30%), Method: PREINCUBATION
# [6] = Test System: AMES SALMONELLA TYPHIMURIUM, Strain/Indicator: TA98, Metabolic Activation: NONE, Method: PREINCUBATION
# [7] = Test System: AMES SALMONELLA TYPHIMURIUM, Strain/Indicator: TA100, Metabolic Activation: NONE, Method: PREINCUBATION
# [8] = Test System: AMES SALMONELLA TYPHIMURIUM, Strain/Indicator: TA1535, Metabolic Activation: NONE, Method: PREINCUBATION
# [9] = Test System: AMES SALMONELLA TYPHIMURIUM, Strain/Indicator: TA1537, Metabolic Activation: NONE, Method: STANDARD PLATE
# [10] = Test System: AMES SALMONELLA TYPHIMURIUM, Strain/Indicator: TA98, Metabolic Activation: RAT, LIVER, S-9, AROCLOR 1254, Method: STANDARD PLATE
smiles,measurement,setting,value
OCc1ccc2c3c(cccc13)-c1ccccc1-2,mutagenic call,[1],inactive; negative
same,mutagenic call,[2],inactive; negative
Oc1cc(O)cc(/C=C/c2ccc(O)c(O)c2)c1,mutagenic call,"Test System: Ames Salmonella typhimurium, Strain/Indicator: TA102, Metabolic Activation: None, Method: Preincubation",inactive; negative
same,mutagenic call,"Test System: Ames Salmonella typhimurium, Strain/Indicator: TA102, Metabolic Activation: Rat, Liver, S-9, Aroclor 1254 in 0.154 M KCl, Method: Preincubation",inactive; negative
C=CCNC(N)=S,mutagenic call,[3],inactive; negative
same,mutagenic call,[4],inactive; negative
same,mutagenic call,"Test System: AMES SALMONELLA TYPHIMURIUM, Strain/Indicator: TA97, Metabolic Activation: RAT, LIVER, S-9, AROCLOR 1254 (10 OR 30%), Method: PREINCUBATION",inactive; negative
same,mutagenic call,[5],inactive; negative
same,mutagenic call,[6],inactive; negative
same,mutagenic call,"Test System: AMES SALMONELLA TYPHIMURIUM, Strain/Indicator: TA98, Metabolic Activation: RAT, LIVER, S-9, AROCLOR 1254 (10 OR 30%), Method: PREINCUBATION",inactive; negative
same,mutagenic call,"Test System: AMES SALMONELLA TYPHIMURIUM, Strain/Indicator: TA100, Metabolic Activation: HAMSTER, LIVER, S-9, AROCLOR 1254 (10 OR 30%), Method: PREINCUBATION",inactive; negative
same,mutagenic call,[7],inactive; negative
same,mutagenic call,"Test System: AMES SALMONELLA TYPHIMURIUM, Strain/Indicator: TA100, Metabolic Activation: RAT, LIVER, S-9, AROCLOR 1254 (10 OR 30%), Method: PREINCUBATION",inactive; negative
same,mutagenic call,"Test System: AMES SALMONELLA TYPHIMURIUM, Strain/Indicator: TA1535, Metabolic Activation: HAMSTER, LIVER, S-9, AROCLOR 1254 (10 OR 30%), Method: PREINCUBATION",inactive; negative
same,mutagenic call,[8],inactive; negative
same,mutagenic call,"Test System: AMES SALMONELLA TYPHIMURIUM, Strain/Indicator: TA1535, Metabolic Activation: RAT, LIVER, S-9, AROCLOR 1254 (10 OR 30%), Method: PREINCUBATION",inactive; negative
CN(C)CCNC(=O)c1cccc2c(N)c3ccccc3nc12,mutagenic call,[9],active; positive
O[C@H]1C=Cc2c(ccc3c4c5c(cccc5cc23)C=C4)[C@@H]1O,mutagenic call,[1],inactive; negative
same,mutagenic call,"Test System: AMES SALMONELLA TYPHIMURIUM, Strain/Indicator: TA98, Metabolic Activation: RAT, LIVER, S-9, AROCLOR 1254 (0.4, 0.8, 1.15 OR 1.5 MG/PLATE), Method: STANDARD PLATE",active; positive
same,mutagenic call,[10],active; positive
CN(C)c1ccc(N=Nc2ccc(C=O)cc2)cc1,mutagenic call,"Test System: AMES SALMONELLA TYPHIMURIUM, Strain/Indicator: TA98, Metabolic Activation: RAT, LIVER, S-9, POLYCHLORINATED BIPHENYLS, Method: PREINCUBATION",active; positive
same,mutagenic call,"Test System: AMES SALMONELLA TYPHIMURIUM, Strain/Indicator: TA100, Metabolic Activation: RAT, LIVER, S-9, POLYCHLORINATED BIPHENYLS, Method: PREINCUBATION",active; positive
O.O.O.O.O.O.O=[N+]([O-])[O-].O=[N+]([O-])[O-].O=[N+]([O-])[O-].[La+3],mutagenic call,[3],inactive; negative
same,mutagenic call,[4],inactive; negative
same,mutagenic call,"Test System: AMES SALMONELLA TYPHIMURIUM, Strain/Indicator: TA97, Metabolic Activation: RAT, LIVER, S-9, AROCLOR 1254 (10%), Method: PREINCUBATION",inactive; negative
same,mutagenic call,"Test System: AMES SALMONELLA TYPHIMURIUM, Strain/Indicator: TA97, Metabolic Activation: RAT, LIVER, S-9, AROCLOR 1254 (30%), Method: PREINCUBATION",inactive; negative
same,mutagenic call,[5],inactive; negative
same,mutagenic call,[6],inactive; negative
same,mutagenic call,"Test System: AMES SALMONELLA TYPHIMURIUM, Strain/Indicator: TA98, Metabolic Activation: RAT, LIVER, S-9, AROCLOR 1254 (10%), Method: PREINCUBATION",inactive; negative
same,mutagenic call,"Test System: AMES SALMONELLA TYPHIMURIUM, Strain/Indicator: TA98, Metabolic Activation: RAT, LIVER, S-9, AROCLOR 1254 (30%), Method: PREINCUBATION",inactive; negative
same,mutagenic call,"Test System: AMES SALMONELLA TYPHIMURIUM, Strain/Indicator: TA100, Metabolic Activation: HAMSTER, LIVER, S-9, AROCLOR 1254 (10%), Method: PREINCUBATION",inactive; negative
same,mutagenic call,"Test System: AMES SALMONELLA TYPHIMURIUM, Strain/Indicator: TA100, Metabolic Activation: HAMSTER, LIVER, S-9, AROCLOR 1254 (30%), Method: PREINCUBATION",inactive; negative
same,mutagenic call,[7],inactive; negative
same,mutagenic call,"Test System: AMES SALMONELLA TYPHIMURIUM, Strain/Indicator: TA100, Metabolic Activation: RAT, LIVER, S-9, AROCLOR 1254 (10%), Method: PREINCUBATION",inactive; negative
same,mutagenic call,"Test System: AMES SALMONELLA TYPHIMURIUM, Strain/Indicator: TA100, Metabolic Activation: RAT, LIVER, S-9, AROCLOR 1254 (30%), Method: PREINCUBATION",inactive; negative
same,mutagenic call,"Test System: AMES SALMONELLA TYPHIMURIUM, Strain/Indicator: TA1535, Metabolic Activation: HAMSTER, LIVER, S-9, AROCLOR 1254 (10%), Method: PREINCUBATION",inactive; negative
same,mutagenic call,"Test System: AMES SALMONELLA TYPHIMURIUM, Strain/Indicator: TA1535, Metabolic Activation: HAMSTER, LIVER, S-9, AROCLOR 1254 (30%), Method: PREINCUBATION",inactive; negative
same,mutagenic call,[8],inactive; negative
same,mutagenic call,"Test System: AMES SALMONELLA TYPHIMURIUM, Strain/Indicator: TA1535, Metabolic Activation: RAT, LIVER, S-9, AROCLOR 1254 (10%), Method: PREINCUBATION",inactive; negative
same,mutagenic call,"Test System: AMES SALMONELLA TYPHIMURIUM, Strain/Indicator: TA1535, Metabolic Activation: RAT, LIVER, S-9, AROCLOR 1254 (30%), Method: PREINCUBATION",inactive; negative
same,mutagenic call,"Test System: UDS HUMAN LYMPHOCYTES, Strain/Indicator: THYMIDINE INCORPORATION, Metabolic Activation: NONE, Method: LIQUID SCINTILLATION COUNTING",active; positive
Nc1cccc2nc3ccccc3nc12,mutagenic call,[6],active; positive
same,mutagenic call,"Test System: AMES SALMONELLA TYPHIMURIUM, Strain/Indicator: TA98, Metabolic Activation: RAT, LIVER, S-9, PCB, Method: PREINCUBATION",inactive; negative
CCN(CC)c1ccc(N=Nc2ccc([N+](=O)[O-])cc2C#N)cc1,mutagenic call,[1],active; positive
same,mutagenic call,[10],active; positive
same,mutagenic call,[2],active; positive
same,mutagenic call,"Test System: AMES SALMONELLA TYPHIMURIUM, Strain/Indicator: TA100, Metabolic Activation: RAT, LIVER, S-9, AROCLOR 1254, Method: STANDARD PLATE",active; positive
same,mutagenic call,"Test System: AMES SALMONELLA TYPHIMURIUM, Strain/Indicator: TA1535, Metabolic Activation: NONE, Method: STANDARD PLATE",inactive; negative
same,mutagenic call,"Test System: AMES SALMONELLA TYPHIMURIUM, Strain/Indicator: TA1535, Metabolic Activation: RAT, LIVER, S-9, AROCLOR 1254, Method: STANDARD PLATE",inactive; negative
same,mutagenic call,[9],active; positive
same,mutagenic call,"Test System: AMES SALMONELLA TYPHIMURIUM, Strain/Indicator: TA1537, Metabolic Activation: RAT, LIVER, S-9, AROCLOR 1254, Method: STANDARD PLATE",active; positive
same,mutagenic call,"Test System: CHINESE HAMSTER OVARY, Strain/Indicator: CHO (HGPRT)/6-THIOGUANINE, Metabolic Activation: NONE",inactive; negative
same,mutagenic call,"Test System: CHINESE HAMSTER OVARY, Strain/Indicator: CHO (HGPRT)/6-THIOGUANINE, Metabolic Activation: RAT, LIVER, S-9, AROCLOR 1254",inactive; negative
same,mutagenic call,"Test System: UDS RAT HEPATOCYTES, Strain/Indicator: THY INCORP, Metabolic Activation: NONE, Method: AUTORADIOGRAPHY",inactive; negative
O=C1C2(Cl)C3(Cl)C4(Cl)C(Cl)(Cl)C5(Cl)C3(Cl)C1(Cl)C5(Cl)C24Cl (stereo unspecified),mutagenic call,"End Point: IN VITRO CHROMOSOMAL ABERRATIONS, Test System: CHINESE HAMSTER OVARY CELLS, Metabolic Activation: NONE",inactive; negative
same,mutagenic call,"End Point: IN VITRO CHROMOSOMAL ABERRATIONS, Test System: CHINESE HAMSTER OVARY CELLS, Metabolic Activation: RAT, LIVER, S-9, AROCLOR 1254",inactive; negative

# From PubChem BioAssay AID1259407 (Chemical Carcinogenesis Research Information System (CCRIS), 2018)
